The values that follow come from ChEMBL document CHEMBL3769339, “Synthesis of indole-derived allocolchicine congeners exhibiting pronounced anti-proliferative and apoptosis-inducing properties” (Medchemcomm, 2015).

Molecules are shown by their SMILES. The source made the active and inactive calls. The calls are words filed in the database; no cut-off is given here.

In data set [1] the test system is BJAB. In words: Induction of apoptosis in human BJAB cells assessed as DNA fragmentation after 72 hrs by flow cytometry. Type of data set: functional, cell-based. Background: Flow cytometry measures light scatter and fluorescence of single cells or particles in a stream.
Data set [2] has as its system BJAB. In words: Antiproliferative activity against human BJAB cells after 24 hrs by CASY cell counting method. It counts as functional, cell-based.
The subject of data set [3] is BJAB. In words: Antiproliferative activity against human BJAB cells at AC50 after 24 hrs by CASY cell counting method. Type of data set: functional.
The subject of data set [4] is BJAB. The data set can be described thus: Cytotoxicity against human BJAB cells assessed as necrosis at AC50 after 72 hrs by LDH release assay. Type of data set: cell-based.
Data set [5] deals with BJAB. The data set can be described thus: Antiproliferative activity against human BJAB cells assessed as cell count at 30 uM after 24 hrs by CASY cell counting method (reference value: 2.02 10^5/ml). It counts as functional.
Data set [6] deals with BJAB. In words: Antiproliferative activity against human BJAB cells assessed as cell count at 10 uM after 24 hrs by CASY cell counting method (reference value: 2.02 10^5/ml). It counts as functional.
Data set [7] has as its system BJAB. In words: Antiproliferative activity against human BJAB cells assessed as cell count at 0.5 uM after 24 hrs by CASY cell counting method (reference value: 2.02 10^5/ml). It counts as functional.
The subject of data set [8] is BJAB. The data set can be described thus: Antiproliferative activity against human BJAB cells assessed as cell count at 0.005 uM after 24 hrs by CASY cell counting method (reference value: 2.02 10^5/ml). It counts as functional.
Data set [9] concerns BJAB. The data set can be described thus: Antiproliferative activity against human BJAB cells assessed as cell count at 0.001 uM after 24 hrs by CASY cell counting method (reference value: 2.02 10^5/ml). Type of data set: functional.
Data set [10] concerns BJAB. The data set can be described thus: Antiproliferative activity against human BJAB cells assessed as cell count at 0.05 uM after 24 hrs by CASY cell counting method (reference value: 2.02 10^5/ml). It counts as functional.
The species named for data set [11] is Ovis aries. The data set can be described thus: Inhibition of sheep tubulin polymerization at 0.75 to 7.5 uM by fluorescence based assay.
Data set [12] concerns BJAB. In words: Antiproliferative activity against human BJAB cells assessed as cell count at 0.01 uM after 24 hrs by CASY cell counting method (reference value: 2.02 10^5/ml). Type of data set: functional.
In data set [13] the test system is BJAB. The data set can be described thus: Antiproliferative activity against human BJAB cells assessed as cell count at 1 uM after 24 hrs by CASY cell counting method (reference value: 2.02 10^5/ml). It counts as functional.
Data set [14] in a line: Inhibition of sheep tubulin polymerization by fluorescence based assay. More on the design: species or system Ovis aries.
Data set [15] concerns BJAB. The data set can be described thus: Antiproliferative activity against human BJAB cells assessed as cell count at 5 uM after 24 hrs by CASY cell counting method (reference value: 2.02 10^5/ml). It counts as functional.
Data set [16] relates to BJAB. The data set can be described thus: Antiproliferative activity against human BJAB cells assessed as cell count at 0.1 uM after 24 hrs by CASY cell counting method (reference value: 2.02 10^5/ml). Type of data set: functional.
The subject of data set [17] is BJAB. The data set can be described thus: Cytotoxicity against human BJAB cells assessed as necrosis at 5 uM after 1 hr by LDH release assay. It counts as cell-based.
Data set [18] has as its system BJAB. The data set can be described thus: Antiproliferative activity against human BJAB cells assessed as cell count at 100 uM after 24 hrs by CASY cell counting method (reference value: 2.02 10^5/ml). Type of data set: functional.
For data set [19], the system named is BJAB. In words: Antiproliferative activity against human BJAB cells assessed as cell count at 50 uM after 24 hrs by CASY cell counting method (reference value: 2.02 10^5/ml). It counts as functional.

Take `COc1cc2c(c(OC)c1OC)-c1cc3c(ccn3C)cc1C(=O)CC2`: in data set [1], the AC50 was 50 nM and the Activity result was “Dose-dependent effect”. Besides, in data set [2], the Activity result was “Dose-dependent effect” and half-maximal inhibition (IC50) required 10 nM. For the same compound, in data set [3], the “inhibition (INH)” value stood at 98%. For the same compound, the Activity in data set [4] was 4%.

In the case of `COc1cc2c(c(OC)c1OC)-c1cc3c(ccn3C)cc1C(O)CC2` (racemic), the AC50 in data set [1] came out at 1 nM. The Activity result was “Dose-dependent effect” in [1], “Dose-dependent effect” in data set [2] and 7% in data set [4]. In [2], this compound returned an IC50 of 1 nM. Further, in [3], the “inhibition (INH)” value was 52%.

Take `COc1cc2c(c(OC)c1OC)-c1cc3c(ccn3C)cc1C(NC(C)=O)CC2` (racemic): in data set [1], the AC50 is above 100000 nM and the Activity entry is “Dose-dependent effect”. Further, in data set [2], the Activity result was “Dose-dependent effect” and the IC50 is above 100000 nM.

Take `COc1cc2c(c(OC)c1OC)-c1cc3c(ccn3C)cc1C(N)CC2` (racemic): the AC50 in data set [1] came to 5000 nM. Further, the Activity result in [1] was “Dose-dependent effect”; in [2], “Dose-dependent effect”; in data set [4], 29%. The compound further yielded an IC50 in [2] of 500 nM. Besides, the “inhibition (INH)” value in data set [3] came out at 90%.

As to `COc1cc2c(c(OC)c1OC)-c1cc3c(ccn3C)cc1C(OC(C)=O)CC2` (racemic), the Activity in data set [5] came out at 1.12 ×10⁵ /ml; in data set [6] it was 1.13 ×10⁵ /ml; in [7] it was 1.21 ×10⁵ /ml; in [8] it was 1.87 ×10⁵ /ml; in [9], 2 ×10⁵ /ml; in [10], 1.11 ×10⁵ /ml. In addition, the Activity result was “Dose-dependent effect” in [1]; 1.9 ×10⁵ /ml in data set [12]; “Dose-dependent effect” in [2]; 1.09 ×10⁵ /ml in data set [13]; 1.1 ×10⁵ /ml in data set [15]; 1.17 ×10⁵ /ml in data set [16]. Also, the Activity result is “Non-toxic” in [17], 0.97 ×10⁵ /ml in data set [18], 1.02 ×10⁵ /ml in data set [19] and 0% in data set [4]. For the same compound, the AC50 in data set [1] amounted to 50 nM. Moreover, the inhibition result in [11] was “Active”. The IC50 in [2] was 10 nM; in data set [14], 125 nM. For the same compound, in [3], the “inhibition (INH)” value came out at 89%.

For the compound `COc1cc2c(c(OC)c1OC)-c1cc3c(ccn3C)cc1C(N=[N+]=[N-])CC2` (racemic), in [1], the AC50 was above 100000 nM and the Activity entry was “Dose-dependent effect”. Moreover, in data set [2], the Activity entry was “Dose-dependent effect” and the IC50 amounted to 50000 nM. Also, the “inhibition (INH)” value in [3] came out at 30%. For the same compound, the Activity in [4] was determined as 1%.

In data set [14], `COc1cc2c(c(OC)c1OC)-c1cc3ccn(C)c3cc1C(O)CC2` (racemic) displayed a 50% inhibitory concentration (IC50) of 264 nM.

With `COc1cc2c(c(OC)c1OC)-c1ccc3c(ccn3C)c1C(O)CC2` (racemic), the IC50 in data set [14] was 228 nM.

As for `COc1cc2c(c(OC)c1OC)-c1ccc(OC)c(=O)cc1[C@@H](NC(C)=O)CC2` [COLCHICINE], in data set [1], the AC50 worked out at 30 nM and the Activity result was “Dose-dependent effect”. Further, in [2], the Activity entry was “Dose-dependent effect” and the IC50 was 20 nM. Besides, in data set [14], the IC50 amounted to 375 nM.

The compound `COc1ccc(/C=C\c2cc(OC)c(OC)c(OC)c2)cc1O` [COMBRETASTATIN A4] returned an IC50 in data set [14] of 90 nM.

The term AC50 denotes the concentration giving half of the maximal activity seen. As a reminder, the IC50 is the concentration that inhibits the measured activity by half.
